Read-outs that look alike come from different tables or passages of the source.

This is an account of results in patent US20100029615A1, “BENZIMIDAZOLE DERIVATIVES” (priority 2006, published 2010).

In the test the target is T1, SMO (Mus musculus, UniProt P56726).
T1 construct: endogenous in cells; host or cells: C3H10T1/2 (ATCC #CCL-226)
The test can be described thus: Smoothened (SMO)/Sonic Hedgehog (SHh) Transient Transcriptional Activation Assay (Gli-luciferase reporter in C3H10T1/2 cells). The note with it: SHh 250 ng/ml, 20 hrs. In kind it is cell-based, murine. As for the experimental part: As noted above, the compounds of the invention are useful as inhibitors of SMO. Methods for determining the in vitro activity of these compounds are described below: Smoothened (SMO)/Sonic Hedgehog (SHh) Transient Transcriptional Activation Assay
On Day 1,2×10^6 C3H10T1/2 cells (ATCC #CCL-226) were split and seeded in 12 mls of growth medium Basal Medium Eagle (BME, Invitrogen #21010-046) supplemented with 2 mM L-glutamine (Invitrogen #25030-081), 0.1 units/ml penicillin and 0.1 ug/ml streptomycin (Invitrogen #15140-122), and 10% Fetal Bovine Serum (FBS, Invitrogen #16140-071) in a T-75 flask (Costar #3376). They were allowed to attach for 4 hours at 37° C., 5% CO2. The cells were then transfected using Fugene 6 (Roch #11 814 443 001) in the following reaction: 48 ul Fugene 6 and 745 ul Opti-MEM (Invitrogen #31985-070) were mixed and allowed to sit at room temperature for 5 minutes. 8 ug of pGL4.14/mGli(CS) DNA (10× murine Gli response elements and minimal CS promoter) and 0.5 ug of pEGFP DNA (Clontech) were added, gently mixed and incubated at room temperature for 20 minutes. This entire transfection mix was then added to the T-75 flask containing the cells. The cells were incubated at 37 °C, 5% C02 for 18-24 hrs.
On Day 2, the transfected cells were trypsinized and seeded into white 96 well plates (Costar #3917) in 100ul/well of growth medium at a concentration of 20,000 cells/well. The cells were allowed to recover for 4 hrs before adding serum starvation medium Dulbecco's Modified Eagle Medium (DMEM, Invitrogen #21063-029) supplemented with 2 mM L-glutamine, 0.1 units/ml penicillin and 0.1 ug/ml streptomycin, and 0.5% Calf Serum (CS, Invitrogen #26170-043). The growth media was aspirated off, and the cells were rinsed with 100 ul of starvation media. 95 ul of starvation media was then added to each well. The cells were incubated for 20 hrs at 37 °C, 5% C02.
On Day 3, cells were dosed with test compounds at a final concentration ranging from 2 uM to 2 nM. Immediately after dosing cells with compounds, recombinant human sonic hedgehog (SHh, R&D Systems #1845-SH) was add to a final concentration of 250 ng/ml. A 25 ug vial of SHh was reconstituted with 250 ul PBS/0.1% BSA to give a 100 ng/ul working stock. This working stock was then diluted 1:20 in starvation media. The transfected cells were incubated with compounds and SHh for 20 hrs at 37 °C, 5% C02.
Luciferase assays were conducted on Day 4 using Dual-Glo Luciferase assay system (Promega #E2940) according to Promega's protocol. Briefly, Dual-Glo luciferase reagent was made up and 100 uls were added to each well of the 96 well plate containing media. Plates were shaken at room temperature for 10 minutes, and then read on TopCount (Perkin-Elmer). The luminescence was recorded.

[1] abbreviates: C3H 10T1/2, 2 uM test compound, read-out: SMO % inhibition at 2 uM.
[2] abbreviates: C3H 10T1/2, 2 μM test compound, read-out: SMO CELL % INHIBITION @ 2 μM.

T1 sequence (P56726 33-793): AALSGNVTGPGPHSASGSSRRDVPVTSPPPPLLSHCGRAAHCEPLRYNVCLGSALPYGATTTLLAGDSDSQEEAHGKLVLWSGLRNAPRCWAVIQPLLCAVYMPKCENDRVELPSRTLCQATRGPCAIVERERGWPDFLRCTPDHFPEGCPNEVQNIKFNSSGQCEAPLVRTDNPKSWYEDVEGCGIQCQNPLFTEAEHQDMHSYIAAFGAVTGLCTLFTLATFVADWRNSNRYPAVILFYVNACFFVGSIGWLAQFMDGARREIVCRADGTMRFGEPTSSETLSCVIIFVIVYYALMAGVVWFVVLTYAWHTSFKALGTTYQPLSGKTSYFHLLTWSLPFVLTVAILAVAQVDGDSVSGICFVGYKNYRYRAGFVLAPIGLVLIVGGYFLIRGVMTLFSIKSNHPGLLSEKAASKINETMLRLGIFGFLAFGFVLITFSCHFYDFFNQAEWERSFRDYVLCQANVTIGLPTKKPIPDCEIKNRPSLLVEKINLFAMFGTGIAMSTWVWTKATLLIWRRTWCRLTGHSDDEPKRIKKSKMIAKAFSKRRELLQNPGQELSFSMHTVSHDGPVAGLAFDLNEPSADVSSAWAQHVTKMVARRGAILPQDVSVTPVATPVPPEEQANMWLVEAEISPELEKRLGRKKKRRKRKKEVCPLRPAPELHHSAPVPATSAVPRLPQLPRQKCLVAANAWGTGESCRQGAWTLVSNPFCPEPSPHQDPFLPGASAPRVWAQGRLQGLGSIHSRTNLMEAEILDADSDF

One may read the inhibition as the relative decrease from the control value, in per cent. Take `COc1cc(OC)cc(C(=O)NC2CCCC(c3nc4ccccc4n3CCO)C2)c1` (racemic) [Example 13, N-(3-(1-(2-Hydroxyethyl)-1H-benzo[d]imidazol-2-yl)cyclohexyl)-3,5-dimethoxybenzamide (cis-isomer)]: the inhibition at 2 µM under setting [1] was 98%.

On to `COc1cc(OC)cc(C(=O)NC2CCCC(c3nc4cc(C(=O)N(C)C)ccc4[nH]3)C2)c1` (single isomer, unassigned) [Example 8, 2-(3-(3,5-dimethoxybenzamido)cyclohexyl)-N,N-dimethyl-1H-benzo[d]imidazole-5-carboxamides (cis- and trans-isomers)], for which the “SMO % inhibition at 2 uM” value (2 uM test compound) is on record as 68%.

With `O=C(N[C@@H]1CCC[C@H](c2nc3ccccc3n2CCO)C1)c1ccc2c(c1)OCCO2` (stereo in doubt) [Example 71, N-{3-[1-(2-hydroxyethyl)-1H-benzimidazol-2-yl]cyclohexyl}-2,3-dihydro-1,4-benzodioxine-6-carboxamide], the inhibition at 2 µM under setting [2] turned out to be 98%.

`COc1cc(OC)cc(C(=O)N[C@@H]2CCCC(c3nc4cc(S(C)(=O)=O)ccc4[nH]3)C2)c1` (stereo in doubt) [Example 289, 3,5-dimethoxy-N-{(1R,3S)-3-[5-(methylsulfonyl)-1H-benzimidazol-2-yl]cyclohexyl} benzamide (+)-tartrate]: the inhibition at 2 µM under setting [2] came to 81%.

On to `O=C(NC1CCCC(c2nc3ccccc3[nH]2)C1)c1ccc2c(c1)OCCO2` (stereo not drawn) [Example 1, N-(3-(1H-benzo[d]midazol-2-yl)cyclohexyl)-2,3-dihydrobenzo[b][1,4]dioxine-6-carboxamide], for which the inhibition at 2 µM under setting [1] was 107%.

On to `Cn1c([C@H]2CCC[C@@H](NC(=O)c3ccc4c(c3)OCCO4)C2)nc2ccccc21` [Example 3, N-((1R,3S)-3-(1-methyl-1H-benzo[d]imidazol-2-yl)cyclohexyl)-2,3-dihydrobenzo[b][1,4]dioxine-6-carboxamide], for which the inhibition at 2 µM under setting [1] came to 107%.

As to `COc1cc(OC)cc(C(=O)N[C@@H]2CCC[C@H](c3nc4ccc(C(F)(F)F)cc4[nH]3)C2)c1` [Example 4, 3,5-Dimethoxy-N-((1R,3S)-3-[5-(trifluoromethyl)-1H-benzo[d]imidazol-2-yl)cyclohexyl)benzamide], the inhibition at 2 µM under setting [1] amounted to 105%.

As to `COc1cc(OC)cc(C(=O)NC2CCCC(c3nc4ccc(C)cc4[nH]3)C2)c1` (stereo not drawn) [Example 5, 3,5-dimethoxy-N-[3-(5-methyl-1H-benzo[d]imidazol-2-yl)cyclohexyl)benzamide], the inhibition at 2 µM under setting [1] turned out to be 102%.

As for `CCn1c(C2CCCC(NC(=O)c3ccc4c(c3)OCCO4)C2)nc2ccccc21` (stereo not drawn) [Example 6, N-(3-(1-Ethyl-1H-benzo[d]imidazol-2-yl)cyclohexyl)-2,3-dihydrobenzo[b][1,4]dioxine-6-carboxamide], the inhibition at 2 µM under setting [1] was 58%.

Turning to `CNC(=O)c1ccc2nc([C@H]3CCC[C@@H](NC(=O)c4cc(OC)cc(OC)c4)C3)[nH]c2c1` [Example 7, 2-(3-[3,5-dimethoxybenzamido)cyclohexyl)-N-methyl-1H-benzo[d]imidazole-5-carboxamide], the inhibition at 2 µM under setting [1] is 70%.

In the case of `COc1cc(OC)cc(C(=O)NC2CCCC(c3nc4cc(NC(C)=O)ccc4[nH]3)C2)c1` (stereo not drawn) [Example 9, N-(3-(5-Acetamido-1H-benzo[d]imidazol-2-yl)cyclohexyl)-3,5-dimethoxybenzamide], under setting [1], the inhibition at 2 µM was 87%.

As to `COc1cc(OC)cc(C(=O)NC2CCCC(c3nc4cc(NC(=O)C(C)C)ccc4[nH]3)C2)c1` (stereo not drawn) [Example 10, N-(3-(5-Isobutyramido-1H-benzo[d]imidazol-2-yl)cyclohexyl)-3,5-dimethoxybenzamide], under setting [1], the inhibition at 2 µM stood at 96%.

In the case of `COc1cc(OC)cc(C(=O)NC2CCCC(c3nc4ccc(NS(C)(=O)=O)cc4[nH]3)C2)c1` (stereo not drawn) [Example 11, 3,5-Dimethoxy-N-(3-(5-(methylsulfonamido)-1H-benzo[d]imidazol-2-yl)cyclohexyl)benzamide], under setting [1], the inhibition at 2 µM was 86%.

For `COc1cc(OC)cc(C(=O)NC2CCCC(c3nc4ccc(NS(=O)(=O)C(C)C)cc4[nH]3)C2)c1` (stereo not drawn) [Example 12, 3,5-Dimethoxy-N-(3-(5-(propan-2-ylsulfonamido)-1H-benzo[d]imidazol-2-yl)cyclohexyl)], under setting [1], the inhibition at 2 µM turned out to be 62%.

In the case of `CN(C(=O)c1ccc2c(c1)OCCO2)C1CCCC(c2nc3ccccc3n2C)C1` (stereo not drawn) [Example 14, N-Methyl-N-(3-(1-methyl-1H-benzo[d]imidazol-2-yl)cyclohexyl)-2,3-dihydrobenzo[b][1,4]dioxine-6-carboxamide], under setting [1], the inhibition at 2 µM is 95%.

Consider `N#CCCn1c(C2CCCC(NC(=O)c3ccc4c(c3)OCCO4)C2)nc2ccccc21` (stereo not drawn) [Example 15, N-(3-(1-(2-Cyanoethyl)-1H-benzo[d]imidazol-2-yl)cyclohexyl)-2,3-dihydrobenzo[b][1,4]dioxine-6-carboxamide], for which, under setting [1], the inhibition at 2 µM came out at 94%.

On to `COCCn1c(C2CCCC(NC(=O)c3ccc4c(c3)OCCO4)C2)nc2ccccc21` (stereo not drawn) [Example 16, N-(3-(1-(2-Methoxyethyl)-1H-benzo[d]imidazol-2-yl]cyclohexyl)-2,3-dihydrobenzo[b][1,4]dioxine-6-carboxamide], for which the inhibition at 2 µM under setting [1] worked out at 59%.

As for `COc1cc(OC)cc(C(=O)NC2CCCC(c3nc4ccc(Br)cc4[nH]3)C2)c1` (stereo not drawn) [Example 17, N-(3-(5-Bromo-1H-benzo[d]imidazol-2-yl)cyclohexyl)-3,5-dimethoxybenzamide], the inhibition at 2 µM under setting [1] is 103%.

With `N#Cc1ccc2nc(C3CCCC(NC(=O)c4ccc5c(c4)OCCO5)C3)[nH]c2c1` (stereo not drawn) [Example 19, N-(3-(5-Cyano-1H-benzo[d]imidazol-2-yl)cyclohexyl]-2,3-dihydrobenzo[b][1,4]dioxine-6-carboxamide], the inhibition at 2 µM under setting [1] amounted to 100%.

Turning to `Cn1c([C@@H]2CCC[C@H](NC(=O)c3ccc4c(c3)OCCO4)C2)nc2ccccc21` [Example 21, N-((1S,3R)-3-(1-Methyl-1H-benzo[d]imidazol-2-yl)cyclohexyl)-2,3-dihydrobenzo[b](1,4]dioxine-6-carboxamide], the inhibition at 2 µM under setting [1] stood at 71%.

Turning to `COc1cc(OC)cc(C(=O)NC2CCCC(c3nc4ccc(C(F)(F)F)cc4[nH]3)C2)c1` (stereo not drawn) [Example 24, 3,5-Dimethoxy-N-(3-(6-(trifluoromethyl)-1H-benzo[d]imidazol-2-yl]cyclohexyl)benzamide], the inhibition at 2 µM under setting [1] came to 105%.

In the case of `COc1cc(OC)cc(C(=O)NC2CCCC(c3nc4cc(Cl)ccc4[nH]3)C2)c1` (stereo not drawn) [Example 25, N-(3-(6-Chloro-1H-benzo[d]imidazol-2-yl)cyclohexyl]-3,5-dimethoxybenzamide], the inhibition at 2 µM under setting [1] was 99%.

With `COc1cc(OC)cc(C(=O)NC2CCCC(c3nc4ccc(C)cc4n3C)C2)c1` (stereo not drawn) [Example 26, N-(3-(1,6-Dimethyl-1H-benzo[d]imidazol-2-yl)cyclohexyl]-3,5-dimethoxybenzamide], the inhibition at 2 µM under setting [1] turned out to be 113%.

`COc1cc(OC)cc(C(=O)NC2CCCC(c3nc4cc(C)ccc4n3C)C2)c1` (stereo not drawn) [Example 27, N-(3-(1,5-Dimethyl-1H-benzo[d]imidazol-2-yl)cyclohexyl]-3,5-dimethoxybenzamide]: under setting [1], the inhibition at 2 µM turned out to be 84%.

Take `Cc1ccc2[nH]c(C3CCCC(NC(=O)c4ccc5c(c4)OCCO5)C3)nc2c1` (stereo not drawn) [Example 28, N-(3-(5-Methyl-1H-benzo[d]imidazol-2-yl)cyclohexyl]-2,3-dihydrobenzo[b][1,4]dioxine-6-carboxamide]: the inhibition at 2 µM under setting [1] worked out at 103%.

`COc1ccc2[nH]c(C3CCCC(NC(=O)c4ccc5c(c4)OCCO5)C3)nc2c1` (stereo not drawn) [Example 29, N-(3-(5-Methoxy-1H-benzo[d]imidazol-2-yl)cyclohexyl]-2,3-dihydrobenzo[b][1,4]dioxine-6-carboxamide]: under setting [1], the inhibition at 2 µM was determined as 102%.

Turning to `CN(C)c1ccc2nc(C3CCCC(NC(=O)c4ccc5c(c4)OCCO5)C3)[nH]c2c1` (stereo not drawn) [Example 39], the inhibition at 2 µM under setting [1] turned out to be 102%.
